Experimental data reported in PMC11862990, “Utility of 6-aza-2-thiothymine in the synthesis of novel [1,2,4]triazolo[4,3-b][1,2,4]triazin-7-one derivatives: synthesis, structure elucidation, molecular docking and in vitro anti-lung cancer activity” (RSC Advances, 2025).
Values joined by “and” are separate entries in the source; they are usually repeats but may differ in a detail not shown here. Identical values can stand only once.

Assays:
PC3 (prostate cell line) = test: MTT cytotoxicity assay, PC3; format: cell-based; details: Homo sapiens, 100 μg ml^−1, 48 hours, MTT, read-out: (%) Mortality PC3
Protocol: (§1) Using specific human cancer cell lines, the anti-proliferative effectiveness of compounds 7a–j was evaluated in an in vitro assay. The anti-cancer activity of these compounds (7a–j) on various cancer cell lines, including PC3 (Prostate cell line), A549 (Lung carcinoma), PACA2 (Pancreatic cancer cell line) and BJ1 (normal skin fibroblast), was investigated in this study using the 3-(4,5-dimethylthiazol-2-yl)-2,5-diphenyltetrazolium bromide (MTT) test. Doxorubicin (Dox) was the standard medication used as a positive control.
(§2) All incubations were performed at 37 °C in a 5% CO2 incubator with a 95% humidified environment (Sheldon, TC2323; Cornelius, OR, USA). 96-well micro titer polypropylene plates were seeded with cells at a density of 10^4 cells per well in complete DMEM media, and the cells were allowed to adhere for 24 hours. After the media was aspirated, the tested compounds were added to the cells in a single dose of 100 μg ml^−1 in DMSO. Each well received 40 μl of MTT salt (2.5 g ml^−1) following a 48 hour incubation period. 200 μl of 10% sodium dodecyl sulfate (SDS) was added to each well after the reaction ended, and any formazan crystals that could have been produced were dissolved by two hours of incubator heating to 37 °C. The amount of formazan product was measured at 595 nm using a microplate reader (Bio-Rad Laboratories, model 3350, California, USA) with a reference wavelength of 690 nm, serving as a backdrop. Rather than the drugs under investigation, the medium was applied to the untreated cells (negative control). The examined compounds were dissolved in dimethylsulfoxide (DMSO), and the final concentration in the cells was less than 0.2%. For each compound and the control, the solvent concentration was the same.

[1] = system: BJ1 (normal skin fibroblast); details: 100 μg ml^−1, 48 hours, MTT
Protocol: Using specific human cancer cell lines, the anti-proliferative effectiveness of compounds 7a–j was evaluated in an in vitro assay. The anti-cancer activity of these compounds (7a–j) on various cancer cell lines, including PC3 (Prostate cell line), A549 (Lung carcinoma), PACA2 (Pancreatic cancer cell line) and BJ1 (normal skin fibroblast), was investigated in this study using the 3-(4,5-dimethylthiazol-2-yl)-2,5-diphenyltetrazolium bromide (MTT) test.
In the initial screening trial, a single dosage concentration of 100 μg ml^−1 was applied for 48 hours. The cytotoxicity of the treated cells was determined by calculating the cell death percentage (% mortality) as a percentage of untreated cells (Table 2).
Cell viability was tested using the MTT assay, 3-(4,5-dimethylthiazol-2-yl)-2,5-diphenyl-tetrazolium bromide (Bio Basic Canada Inc. Toronto, Canada).[26] Under class II biosafety regulations, the procedures were carried out in a sterile laminar air flow cabinet (Baker, SG403INT; Sanford, ME, USA). Cell lines were obtained from the American type culture collection (ATCC) as a gift from Dr Stig Linder, Karonisca Institute, Sweden. All incubations were performed at 37 °C in a 5% CO2 incubator with a 95% humidified environment (Sheldon, TC2323; Cornelius, OR, USA). 96-well micro titer polypropylene plates were seeded with cells at a density of 10^4 cells per well in complete DMEM media, and the cells were allowed to adhere for 24 hours. After the media was aspirated, the tested compounds were added to the cells in a single dose of 100 μg ml^−1 in DMSO. Each well received 40 μl of MTT salt ([…]) following a 48 hour incubation period. 200 μl of 10% sodium dodecyl sulfate (SDS) was added to each well after the reaction ended, and any formazan crystals that could have been produced were dissolved by two hours of incubator heating to 37 °C. The amount of formazan product was measured at 595 nm using a microplate reader (Bio-Rad Laboratories, model 3350, California, USA) with a reference wavelength of 690 nm, serving as a backdrop. Rather than the drugs under investigation, the medium was applied to the untreated cells (negative control). The examined compounds were dissolved in dimethylsulfoxide (DMSO), and the final concentration in the cells was less than 0.2%. For each compound and the control, the solvent concentration was the same.

A549 (lung carcinoma) = test: MTT cytotoxicity assay, A549; format: cell-based; details: Homo sapiens, A549, MTT; for cytotoxicity at 100 µg/mL: 100 μg ml^−1, 48 hours, read-out: (%) Mortality A549
Protocol: as §1, §2

[2] = system: PACA2 (pancreatic cancer cell line); test: MTT cytotoxicity assay, PACA2; format: cell-based; details: Homo sapiens, PaCa-2; 100 μg ml^−1, 48 hours, MTT; read-out: (%) Mortality PACA2
Protocol: as §1, §2

Structure (SMILES) | cytotoxicity at 100 µg/mL (PC3 (prostate cell line)) [%] | (%) Mortality BJ1 (cytotoxicity percentage on normal cells) [1] | cytotoxicity at 100 µg/mL (A549 (lung carcinoma)) [%] | cytotoxicity at 100 µg/mL [2] [%] | IC50 (A549 (lung carcinoma); 48 hour incubation) [µM]
CCc1nn(-c2ccc([N+](=O)[O-])cc2)c2nc(=O)c(C)nn12 [Compound 7b, 3-Ethyl-6-methyl-1-(4-nitrophenyl)-[1,2,4]triazolo[4,3-b][1,2,4]triazin-7(1H)-one] | 24.5 ± 0.57 | 4.2 ± 0.98% | 35.2 ± 1.22 | 3.6 ± 0.21 | 
CCCc1nn(-c2ccc([N+](=O)[O-])cc2)c2nc(=O)c(C)nn12 [Compound 7c, 6-Methyl-1-(4-nitrophenyl)-3-propyl-[1,2,4]triazolo[4,3-b][1,2,4]triazin-7(1H)-one] | 27.3 ± 1.2 | 1.6 ± 0.38% | 22.9 ± 0.81 | 10.5 ± 0.61 | 
Cc1nn2c(C(C)C)nn(-c3ccc([N+](=O)[O-])cc3)c2nc1=O [Compound 7d, 3-Isopropyl-6-methyl-1-(4-nitrophenyl)-[1,2,4]triazolo[4,3-b][1,2,4]triazin-7(1H)-one] | 17.9 ± 0.38 | 36.2 ± 1.11% | 33.3 ± 0.22 | 11.5 ± 0.25 | 
Cc1nn2c(CC(C)C)nn(-c3ccc([N+](=O)[O-])cc3)c2nc1=O [Compound 7e, 3-Isobutyl-6-methyl-1-(4-nitrophenyl)-[1,2,4]triazolo[4,3-b][1,2,4]triazin-7(1H)-one] | 35.1 ± 1.11 | 6.4% and 6.4 ± 0.85% | 86.3 ± 0.74 | 8.6 ± 0.33 | 42.5
Cc1ccc(-c2nn(-c3ccccc3)c3nc(=O)c(C)nn23)cc1 [Compound 7f, 6-Methyl-1-phenyl-3-(p-tolyl)-[1,2,4]triazolo[4,3-b][1,2,4]triazin-7(1H)-one] | 33.4 ± 1.18 | 3.2% and 3.2 ± 0.63% | 69.1 ± 0.77 | 5.6 ± 0.11 | 
Cc1nn2c(-c3ccc(Cl)cc3)nn(-c3ccccc3)c2nc1=O [Compound 7h, 3-(4-Chlorophenyl)-6-methyl-1-phenyl-[1,2,4]triazolo[4,3-b][1,2,4]triazin-7(1H)-one] | 24.2 ± 0.21 | 9.6 ± 0.93% | 13.5 ± 0.33 | 21.3 ± 0.98 | 
Cc1nn2c(-c3ccco3)nn(-c3ccc([N+](=O)[O-])cc3)c2nc1=O [Compound 7i, 3-(Furan-2-yl)-6-methyl-1-(4-nitrophenyl)-[1,2,4]triazolo[4,3-b][1,2,4]triazin-7(1H)-one] | 18.4 ± 1.14 | 2.9 ± 1.22% | 14.2 ± 0.24 | 9.6 ± 1.33 | 
Cc1nn2c(-c3cccs3)nn(-c3ccc([N+](=O)[O-])cc3)c2nc1=O [Compound 7j, 6-Methyl-1-(4-nitrophenyl)-3-(thiophen-2-yl)-[1,2,4]triazolo[4,3-b][1,2,4]triazin-7(1H)-one] | 15.9 ± 0.51 | 3.8 ± 0.77% | 32.8 ± 0.54 | 7.2 ± 0.88 | 
